Among the data in ChEMBL document CHEMBL1154739, “Synthesis and AChE inhibitory activity of new chiral tetrahydroacridine analogues from terpenic cyclanones” (Eur J Med Chem, 2010) are IC50 values, retold here.

The assay deals with T1, Acetylcholinesterase (Rattus norvegicus, UniProt P37136).
T1 sequence (P37136 whole entry): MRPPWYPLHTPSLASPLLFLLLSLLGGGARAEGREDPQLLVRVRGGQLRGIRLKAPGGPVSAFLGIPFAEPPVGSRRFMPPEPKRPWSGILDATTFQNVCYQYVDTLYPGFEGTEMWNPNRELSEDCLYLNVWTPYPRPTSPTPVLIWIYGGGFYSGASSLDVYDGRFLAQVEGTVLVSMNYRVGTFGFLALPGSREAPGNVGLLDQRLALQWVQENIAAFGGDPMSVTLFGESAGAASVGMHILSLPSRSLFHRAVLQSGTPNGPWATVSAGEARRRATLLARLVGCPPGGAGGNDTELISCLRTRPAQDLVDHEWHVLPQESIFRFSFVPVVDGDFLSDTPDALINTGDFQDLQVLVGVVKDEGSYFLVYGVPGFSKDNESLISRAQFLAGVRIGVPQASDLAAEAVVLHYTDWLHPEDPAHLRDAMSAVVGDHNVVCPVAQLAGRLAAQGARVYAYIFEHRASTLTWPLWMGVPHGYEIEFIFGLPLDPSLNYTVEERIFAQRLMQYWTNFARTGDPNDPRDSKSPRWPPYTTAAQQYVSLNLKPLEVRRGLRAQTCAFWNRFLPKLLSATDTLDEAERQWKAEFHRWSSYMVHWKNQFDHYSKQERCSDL
Description: Inhibition of AChE from rat cortex by Ellman assay

As usually defined, the IC50 is the concentration at which inhibition is half-maximal. Regarding `CC(C)[C@H]1CCc2c(nc3ccccc3c2N)C1`, the half-inhibitory concentration (IC50) was found to be 816 nM.
The value for `CC1(C)[C@H]2Cc3c(nc4ccccc4c3N)[C@@H]1C2` was 1930 nM; that for `CC(C)[C@@H]1Cc2nc3ccccc3c(N)c2C1` was 2450 nM.
Regarding `C[C@@H]1CCc2c(nc3ccccc3c2N)C1`, the IC50 was 1380 nM.
`C[C@H]1CC(=O)C(C)(C)c2nc3ccccc3c(N)c2C1` displayed a half-maximal inhibitory concentration (IC50) of 288 nM.
The compound `C[C@H]1CC[C@H](C(C)(C)C)c2nc3ccccc3c(N)c21` displayed an IC50 of 1350 nM.
Take `CC(C)[C@H]1CC[C@H](C(C)C)c2c1nc1ccccc1c2N`: inhibition was half-maximal at 7220 nM (IC50).
Compound `C[C@H]1Cc2nc3ccccc3c(N)c2C1` gave an IC50 of 61 nM.
The value for `C[C@@H]1c2c(nc3ccccc3c2N)[C@H]2C[C@@H]1C2(C)C` was 2620 nM.
